Results from patent US20030157516A1, “G protein coupled receptor” (priority 2000, published 2003).
Where “and” joins values, the source holds several entries; their conditions need not be identical. Equal values may be shown once. Read-outs that look alike come from different tables or passages of the source.

Legend:
rat adenine binding GPCR = molecular target: T1, rat adenine binding GPCR (Rattus norvegicus, UniProt Q7TN49); test: FLIPR Ca2+ transient assay, agonism, HEK293/Gq chimera cells transiently transfected with rat adenine binding GPCR/pcDNA3; format: cell-based; set-up: The full length reading frame was inserted into the mammalian expression vector pcDNA3; expressed in transfected cells; host or cells: HEK293 cells stably transfected with pLEC/Gqi or pLEC/Gqo; conditions: for calcium transients elicited: HEK293/Gaqo cells, 3.3 μM; for agonistic effects on Ca2+ transients: concentrations ranging from 30 μM to 30 pM
T1 sequence (Q7TN49 1-304): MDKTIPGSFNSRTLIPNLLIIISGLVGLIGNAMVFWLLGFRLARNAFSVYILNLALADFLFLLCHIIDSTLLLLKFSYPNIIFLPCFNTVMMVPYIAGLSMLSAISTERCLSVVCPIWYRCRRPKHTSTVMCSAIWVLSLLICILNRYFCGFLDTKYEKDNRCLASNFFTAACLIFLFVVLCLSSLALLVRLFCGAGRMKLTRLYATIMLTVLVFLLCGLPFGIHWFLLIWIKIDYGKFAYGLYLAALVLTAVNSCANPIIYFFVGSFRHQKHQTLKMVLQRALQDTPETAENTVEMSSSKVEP
Excerpt: This assay is based around an instrument called a FLuorescence Imaging Plate Reader ((FLIPR®), Molecular Devices Corporation). In its most common configuration, it excites and measures fluorescence emitted by fluorescein-based dyes. It uses an argon-ion laser to produce high power excitation at 488 nm of a fluorophore, a system of optics to rapidly scan the over the bottom of a 96-/384-well plate and a sensitive, cooled CCD camera to capture the emitted fluorescence. It also contains a 96-/384-well pipetting head allowing the instrument to deliver solutions of test agents into the wells of a 96-/384-well plate. The FLIPR assay is designed to measure fluorescence signals from populations of cells before, during and after addition of compounds, in real time, from all 96-/384-wells simultaneously. […] As described below, calcium transients in cells transfected with adenine binding GPCR were measured using the FLIPR assay in order to measure activation of the receptors by various substrates in order to determine the natural ligand of the receptor.
The full length reading frame was inserted into the mammalian expression vector pcDNA3 (Invitrogen, Carlsbad, Calif., U.S.A.) and the resulting expression construct was transiently transfected with the FuGENE 6 reagent (Roche Molecular Biochemicals, Mannheim, Germany) into HEK293 cells stably transfected (E. Bender, unpublished) with pLEC/Gqi or pLEC/Gqo (Molecular Devices, Sunnyvale, Calif., U.S.A.). The cells were loaded with Fluo-4 (Molecular Probes, Eugene, Oreg., U.S.A.) according to the recommendations of the supplier. […]
Using the FLIPR assay as above, calcium transients were measured in both sets of cells with the transients attributable to the novel GPCR measured as the difference between the two transients. Results are illustrated in FIG. 4. […]

adenine binding GPCR = molecular target: T2, adenine binding GPCR (Rattus norvegicus, UniProt Q7TN49); test: FLIPR Ca2+ transient assay, antagonism of 30 nM adenine challenge; format: cell-based; conditions: 15 minutes incubation with compound (30 μM to 30 pM), then challenge with 30 nM adenine
T2 construct: The full length reading frame was inserted into the mammalian expression vector pcDNA3; expressed in transfected cells; host or cells: HEK293 cells stably transfected with pLEC/Gqi or pLEC/Gqo
T2 sequence (Q7TN49 1-304): T1 sequence (Q7TN49 1-304)
Excerpt: The full length reading frame was inserted into the mammalian expression vector pcDNA3 (Invitrogen, Carlsbad, Calif., U.S.A.) and the resulting expression construct was transiently transfected with the FuGENE 6 reagent (Roche Molecular Biochemicals, Mannheim, Germany) into HEK293 cells stably transfected (E. Bender, unpublished) with pLEC/Gqi or pLEC/Gqo (Molecular Devices, Sunnyvale, Calif., U.S.A.). The cells were loaded with Fluo-4 (Molecular Probes, Eugene, Oreg., U.S.A.) according to the recommendations of the supplier.
After a 15 minutes incubation at room temperature, the same cells were challenged with 30 nM adenine, to detect antagonistic properties of molecules added in the first round of superfusion.

wild type CHO cells = test: [3H]adenine competition binding on wild type CHO membranes; conditions: 15 nM [3H]adenine
Method: The membranes were prepared as total particulate fractions. […] The culturing medium was removed and the cells were washed twice with ice cold phosphate buffered saline (PBS without Ca^2+ and Mg^2+), scraped from the plates in 50 mM Tris-HCl buffer, pH 7.4, and collected by centrifugation (10 minutes at 16,000 RPM at 4° C.). The cell pellet was re-suspended in hypotonic 5 mM Tris-HCl buffer, pH 7.4, and homogenized with an Ultra Turrax homogenizer (Janker Kunkel, Germany). The homogenate was centrifuged at 18,000 RPM for 20 minutes at 4° C. The final pellet was re-suspended in 50 mM Tris-HCl buffer, pH 7.4 and stored in aliquots at −70° C. A protein determination was performed using the Bradford protein assay (Biorad, Germany) using bovine serum albumin (BSA) as standard.
(§1) Membranes were thawed on ice and diluted in 50 mM HEPES buffer, pH 7.4 supplemented with 10 mM MgCl2 and 1 mM EGTA. […] Both assays were carried out in a final volume of 500 μl, using 18 μg of membrane protein for the transfected CHO cells and 30 μg of membrane protein for the wild type CHO cells for the saturation binding. For competition binding experiments, 15 and 50 μg of membrane protein was used for the transfected and wild type cells, respectively. The reaction was terminated by rapid filtration through Whatman GF/B filters using a Brandel multi-channel cell harvester (96 wells). The filters were washed three times with 3 ml ice cold 50 mM HEPES buffer, pH 7.4, transferred to liquid scintillation vials and 3 ml of scintillation fluid (Ultima Gold MV, Packard, Netherlands) was added. Samples were counted in a β-scintillation counter after at least 6 hours to permit the glass fiber filters to become uniformly translucent.

[1] = molecular target: T3, adenine binding rat receptor (Rattus norvegicus, UniProt Q7TN49); test: [3H]adenine competition binding on CHO membranes transiently transfected; conditions: transfected cells, 15 nM [3H]adenine
T3 construct: expressed in transfected cells; host or cells: CHO cells, transient, lipofectamine PLUS
T3 sequence (Q7TN49 1-304): T1 sequence (Q7TN49 1-304)
Method: The membranes were prepared as total particulate fractions. The cell lines were cultured to […] on 145 mm petri dishes and treated with 5 mM sodium butyrate, 24 hours before collection. The culturing medium was removed and the cells were washed twice with ice cold phosphate buffered saline (PBS without Ca^2+ and Mg^2+), scraped from the plates in 50 mM Tris-HCl buffer, pH 7.4, and collected by centrifugation (10 minutes at 16,000 RPM at 4° C.). The cell pellet was re-suspended in hypotonic 5 mM Tris-HCl buffer, pH 7.4, and homogenized with an Ultra Turrax homogenizer (Janker Kunkel, Germany). The homogenate was centrifuged at 18,000 RPM for 20 minutes at 4° C. The final pellet was re-suspended in 50 mM Tris-HCl buffer, pH 7.4 and stored in aliquots at −70° C. A protein determination was performed using the Bradford protein assay (Biorad, Germany) using bovine serum albumin (BSA) as standard.
as §1, with “A) Methods—[3H]Adenine binding experiments were performed to characterize wild type cell lines before transfection as well as transiently and permanently transfected cell lines. Membranes” for “Membranes”

[2] = molecular target: T3, adenine binding rat receptor; test: [35S]GTPγS binding on CHO membranes transiently transfected; format: biochemical; conditions: transiently transfected cells; for % stim.: increase above basal; for EC50: read-out: pEC50 (converted)
Method: a) Methods—Determination of [^35S ]GTPγS binding to the G-proteins was carried out according to a modified procedure of Lazareno (Methods Mol. Biol., 83:107-116, 1997). These experiments were performed for a first functional evaluation of the receptor on the level of a membrane preparation.
The assay mixture contained 10 and 35 μg of membrane protein for the transfected and wild type CHO cells, respectively.
For testing agonistic activity, 175 μl of diluted membranes was pre-incubated in the buffer described above together with 25 μl of buffer and 25 μl of varying concentrations of the compound in a total volume of 225 μl. After a 20 minute pre-incubation period at 30° C., 25 μl of [^35S]GTPγS was added to a final concentration of 0.25 nM and the assay mixtures were further incubated for 20 minutes at 30° C. Bound and free [^35S]GTPγS were separated by rapid filtration over an UniFilter™-96, GF/B™ under reduced pressure using Filtermate 196 filtration (Packard Company (Netherlands). The amount of bound radioactivity on the filter unit was determined after drying of the filters and scintillant addition (Microscint-O; Packard Company) by liquid scintillation counting.
Basal [^35S]GTPγS binding was measured in absence of compounds. Stimulation by agonist was calculated as the percentage increase above basal levels. The sigmoid agonist concentration-response curves were analyzed by non-linear regression using the GraphPad Prism program. The different concentration points were run in duplicates and the reported data were retrieved from independent experiments.

| Compound | calcium transients elicited (rat adenine binding GPCR) | agonistic effects on Ca2+ transients (rat adenine binding GPCR) | antagonistic effect (adenine binding GPCR) | pIC50 (wild type CHO cells; mean of n experiments) | pIC50 (wild type CHO cells; single experiments) | IC50 ([1]; mean of n experiments) [µM] | IC50 ([1]; single experiments) [µM] | also measured |
| --- | --- | --- | --- | --- | --- | --- | --- | --- |
| O=c1[nH]cnc2nc[nH]c12 [Hypoxanthine, hypoxanthine] | could not be elicited | No further agonistic effects | did not elicit antagonistic effects | <4 | <4 | > 100 | > 100 | – |
| O=c1ccn([C@@H]2O[C@H](CO)[C@@H](O)[C@H]2O)c(=O)[nH]1 [Uridine, uridine] | could not be elicited | No further agonistic effects | did not elicit antagonistic effects | <4 | <4 | > 100 | > 100 | – |
| COc1cccc2c1C(=O)c1c(O)c3c(c(O)c1C2=O)C[C@@](O)(C(C)=O)C[C@@H]3O[C@H]1C[C@H](N)[C@H](O)[C@H](C)O1 [Daunomycin] | – | – | – | <4 | <4 | 50.1 | 50.1 | Ki ([1]; mean of n experiments): 31.3 µM; Ki ([1]; single experiments): 31 µM |
| COc1cccc2c1C(=O)c1c(O)c3c(c(O)c1C2=O)C[C@@](O)(C(=O)CO)C[C@@H]3O[C@H]1C[C@H](N)[C@H](O)[C@H](C)O1 [Adrianamycin] | – | – | – | <4 | <4 | – | – | Ki ([1]; mean of n experiments): 27.9 µM; pIC50 ([1]; mean of n experiments): 4.35; Ki ([1]; single experiments): 27.8 µM; pIC50 ([1]; single experiments): 4.35 |
| Cc1ccc(C(=O)Nc2ccc(S(=O)(=O)O)c3cc(S(=O)(=O)O)cc(S(=O)(=O)O)c23)cc1NC(=O)c1cccc(NC(=O)Nc2cccc(C(=O)Nc3cc(C(=O)Nc4ccc(S(=O)(=O)O)c5cc(S(=O)(=O)O)cc(S(=O)(=O)O)c45)ccc3C)c2)c1 [suramin] | – | No further agonistic effects | did not elicit antagonistic effects | – | – | – | – | – |
| O=c1ccn([C@@H]2O[C@H](COP(=O)(O)OP(=O)(O)OP(=O)(O)O)[C@@H](O)[C@H]2O)c(=O)[nH]1 [UTP] | – | No further agonistic effects | did not elicit antagonistic effects | – | – | – | – | – |
| O=c1[nH]c(=O)c2[nH]cnc2[nH]1 [xanthine] | could not be elicited | No further agonistic effects | did not elicit antagonistic effects | – | – | – | – | – |
| O=c1ccn([C@@H]2O[C@H](COP(=O)(O)OP(=O)(O)O)[C@@H](O)[C@H]2O)c(=O)[nH]1 [UDP] | could not be elicited | No further agonistic effects | did not elicit antagonistic effects | – | – | – | – | – |
| c1ccc(CNc2ncnc3nc[nH]c23)cc1 [6-Benzylaminopurine] | – | – | – | <4 | <4 | 93.3 | 87.1 | stimulation normalized to maximum adenine response ([2]; adenine stimulation of same experiment = 100%): (11% ref); % stim. ([2]; mean of n experiments): 12%; % stim. ([2]; single experiments): 12%; EC50 ([2]; mean of n experiments): > 100 µM; EC50 ([2]; single experiments): > 100 µM; Ki ([1]; mean of n experiments): 58.3 µM; Ki ([1]; single experiments): 61.4 µM and 54.1 µM |
| Cn1c(=O)c2[nH]cnc2n(C)c1=O [theophylline] | – | No further agonistic effects | did not elicit antagonistic effects | – | – | – | – | – |
| reactive blue | – | No further agonistic effects | did not elicit antagonistic effects | – | – | – | – | – |
